Test results from US20260216238A1, “TETRATHIOMOLYBDIC ACID FOR USE IN TREATING COPPER METABOLISM-ASSOCIATED DISEASES OR DISORDERS (WILSON DISEASE)” (Alexion Pharmaceuticals, Inc., priority 2023, published 2026).

How the values were obtained:
[1] = tested on: patients with Wilson disease (WD); test: Unified Wilson Disease Rating Scale (UWDRS) Part II total score (disability); type: in vivo, human; conditions: for UWDRS Part II (0-40) change from baseline, Mean (SD): pooled Studies 301 and 201; for UWDRS Part II (0-40) change from baseline, LSM / UWDRS Part II (0-40) change from baseline, Mean: Study 301 TTM long term set
Text: Unified Wilson Disease Rating Scale (Parts I, II, and III): The UWDRS is a clinical rating scale designed to evaluate the neurological manifestations of WD that generally can be divided into 3 movement disorder syndromes: dystonic, ataxic, and Parkinsonian syndrome. The UWDRS comprises 3 parts: UWDRS Part I (level of consciousness, item 1), UWDRS Part II (a patient-reported review of daily activity items [disability], items 2 to 11), and UWDRS Part III (a detailed neurological examination, items 12 to 34).
The UWDRS Part I and Part III were assessed by a neurologist who is blinded to the treatment randomization, while UWDRS Part II may be reported to a non-blinded member of the study team by the patient, family member, or caregiver. The UWDRS has not been formally evaluated in adolescents. However, the components of Part I (level of consciousness), Part II (patient or caregiver-reported disability) and Part III (neurologic examination findings) were not fundamentally different between adults and adolescents. Patients aged 12 years and older were expected to be able to comply with UWDRS assessments.
Pooled results from all such participants will be integrated together into one timeline to allow analyses of changes in UWDRS, long-term copper control, and long-term safety laboratory data.

[2] = tested on: patients with Wilson disease (WD); test: Clinical Global Impression-Severity scale (CGI-S); type: in vivo, human; conditions: for CGI-S (1 to 7, 1 is normal) change from baseline, LSM / CGI-S (1 to 7, 1 is normal) change from baseline, Mean: Study 301 TTM long term set
Text: Clinical Global Impression-[…]: The Clinical Global Impression (CGI) rating scales were commonly used measures of symptom severity, treatment response, and the efficacy of treatments in treatment studies of adult and pediatric patients with mental disorders.
The Clinical Global Impression-Severity scale (CGI-S) is a 7-point scale that requires the clinician to rate the severity of the patient's illness at the time of assessment, relative to the clinician's past experience with patients who have the same diagnosis. Considering total clinical experience, a patient was assessed on severity of illness at the time of rating as: 1, normal, not at all ill; 2, borderline ill; 3, mildly ill; 4, moderately ill; 5, markedly ill; 6, severely ill; or 7, extremely ill.

[3] = tested on: participants with cirrhosis at baseline
Text: Study 205 is registered with ClinicalTrials.gov, number NCT04422431, and incorporated by reference in its entirety.

[4] = human, in vivo
[5] = tested on: patients with WD; conditions: cited from earlier work
[6] = Subpopulation E, Baseline, TTM N=104, SoC N=56
[7] = Subpopulation E, Week 48, TTM N=89, SoC N=47

## bis-choline tetrathiomolybdate [TTM]
[1]; 0-48W, symptomatic patients
  UWDRS Part II score change (mean): −1.7
[1]; Study 301 Full Analysis Set
  UWDRS Part II (0-40), Change from Baseline at 48 weeks, LSM: −0.1
  UWDRS Part II (0-40), Change from Baseline at 48 weeks, Mean: −0.6
[1]; TTM exposure 4 weeks
  UWDRS Part II (0-40) change from baseline, Mean (SD): −0.3 (2.28)
[1]; TTM exposure 12 weeks
  UWDRS Part II (0-40) change from baseline, Mean (SD): −0.4 (2.76)
[1]; TTM exposure 24 weeks
  UWDRS Part II (0-40) change from baseline, Mean (SD): −0.4 (3.42)
[1]; TTM exposure 36 weeks
  UWDRS Part II (0-40) change from baseline, Mean (SD): −0.9 (4.11)
[1]; TTM exposure 48 weeks
  UWDRS Part II (0-40) change from baseline, Mean (SD): −1.2 (4.24)
[1]; TTM exposure 60 weeks
  UWDRS Part II (0-40) change from baseline, Mean (SD): −1.4 (4.35)
[1]; TTM exposure 72 weeks
  UWDRS Part II (0-40) change from baseline, Mean (SD): −1.9 (4.74)
[1]; TTM exposure 96 weeks
  UWDRS Part II (0-40) change from baseline, Mean (SD): −2.5 (6.11)
[1]; TTM exposure 120 weeks
  UWDRS Part II (0-40) change from baseline, Mean (SD): −3.1 (6.82)
[1]; TTM exposure 144 weeks
  UWDRS Part II (0-40) change from baseline, Mean (SD): −3.3 (6.61)
[1]; TTM exposure 168 weeks
  UWDRS Part II (0-40) change from baseline, Mean (SD): −6.2 (10.17)
[1]; TTM exposure 192 weeks
  UWDRS Part II (0-40) change from baseline, Mean (SD): −5.9 (9.88)
[1]; TTM exposure 216 weeks
  UWDRS Part II (0-40) change from baseline, Mean (SD): −7.1 (10.90)
[1]; TTM exposure 240 weeks
  UWDRS Part II (0-40) change from baseline, Mean (SD): −6.6 (10.09)
[1]; TTM exposure 264 weeks
  UWDRS Part II (0-40) change from baseline, Mean (SD): −6.2 (9.02)
[1]; TTM vs SoC, P 0.4430
  UWDRS Part II (0-40), Difference at 48 weeks, LSM: 0.4
[1]; Week 24
  UWDRS Part II (0-40) change from baseline, LSM: −0.4
  UWDRS Part II (0-40) change from baseline, Mean: −0.3
[1]; Week 48
  UWDRS Part II (0-40) change from baseline, LSM: −0.7
  UWDRS Part II (0-40) change from baseline, Mean: −0.7
[1]; Week 72
  UWDRS Part II (0-40) change from baseline, LSM: −1.0
  UWDRS Part II (0-40) change from baseline, Mean: −1.2
[1]; Week 96
  UWDRS Part II (0-40) change from baseline, LSM: −1.1
  UWDRS Part II (0-40) change from baseline, Mean: −1.1
[1]; Week 120
  UWDRS Part II (0-40) change from baseline, LSM: −1.7
  UWDRS Part II (0-40) change from baseline, Mean: −1.4
[1]; Week 144
  UWDRS Part II (0-40) change from baseline, LSM: −2.0
  UWDRS Part II (0-40) change from baseline, Mean: −2.0
[2]; Study 301 Full Analysis Set
  CGI-S (1-7, 1 is normal), Change from Baseline at 48 weeks, LSM: −0.3
  CGI-S (1-7, 1 is normal), Change from Baseline at 48 weeks, Mean: −0.5
[2]; [6]
  CGI-S, Max: 6
  CGI-S, Mean: 2.9
  CGI-S, Min: 1,
[2]; Subpopulation E, Week 48
  CGI-S, Change from Baseline, LSM: −0.4
  CGI-S, Change from Baseline, LSM Diff (SE) (TTM vs SoC): −0.2 (0.13)
[2]; [7]
  CGI-S, Change from Baseline, Max: 1
  CGI-S, Change from Baseline, Mean: −0.4
  CGI-S, Change from Baseline, Median: 0.0
  CGI-S, Change from Baseline, Min: −3,
  CGI-S, Change from Baseline, Q1: −1.0,
  CGI-S, Change from Baseline, Q3: 0.0
[2]; TTM vs SoC, P 0.2290
  CGI-S, Difference at 48 weeks, LSM: −0.2
[2]; Week 24
  CGI-S (1 to 7, 1 is normal) change from baseline, LSM: −0.3
  CGI-S (1 to 7, 1 is normal) change from baseline, Mean: −0.2
[2]; Week 48
  CGI-S (1 to 7, 1 is normal) change from baseline, LSM: −0.4
  CGI-S (1 to 7, 1 is normal) change from baseline, Mean: −0.5
[2]; Week 72
  CGI-S (1 to 7, 1 is normal) change from baseline, LSM: −0.5
  CGI-S (1 to 7, 1 is normal) change from baseline, Mean: −0.6
[2]; Week 96
  CGI-S (1 to 7, 1 is normal) change from baseline, LSM: −0.5
  CGI-S (1 to 7, 1 is normal) change from baseline, Mean: −0.6
[2]; Week 120
  CGI-S (1 to 7, 1 is normal) change from baseline, LSM: −0.7
  CGI-S (1 to 7, 1 is normal) change from baseline, Mean: −0.6
[2]; Week 144
  CGI-S (1 to 7, 1 is normal) change from baseline, LSM: −0.6
  CGI-S (1 to 7, 1 is normal) change from baseline, Mean: −0.6
[3]; in vivo
  participants with cirrhosis at baseline who maintained liver function (albumin levels): 87%
[3]; of the 13 who experienced changes in liver function
  cirrhotic participants whose albumin levels returned to the normal range: 7 participants
[4]
  effect of age on plasma total molybdenum clearance: not a significant covariate
[5]; Study 201, Week 24, p<0.0001
  reduction of mean serum cNCCcorrected compared with baseline: 72%
[5]; human, in vivo
  patients with reversible liver function test elevations: 39%
